Data taken from PMC9316017, “Succinimido–Ferrocidiphenol Complexed with Cyclodextrins Inhibits Glioblastoma Tumor Growth In Vitro and In Vivo without Noticeable Adverse Toxicity” (Molecules, 2022).
Like-named read-outs stand apart in the source and are kept apart here.

What was measured:
[1] = test system: fifteen molecularly diverse glioblastoma patient-derived cell lines (PDCLs); design: method as in PMID 34638742; settings: cited from earlier work
[2] = Dissolution of the lyophilized complex in water; assay type: physicochemical; settings: 25 °C
Method: To investigate the dissolution, an amount (5 mg) of the lyophilized SuccFerr:RAMEßCD complex was suspended in water. The suspension was incubated at 25 °C in a shaking-bath (200 strokes/min, Heito, France). One-milliliter aliquots were taken at various time intervals up to 24 h and centrifuged× 7200g, 5 min, (Denver Instruments, Bohemia, NY, USA). Each supernatant was analyzed by HPLC to assess the drug contents. The results are presented as mean ± SD of triplicate experiments. A dialysis was also realized under magnetic stirring with a 14,000 Da cut-off bag, containing 2 mL of an aqueous solution of 5 mg of SuccFerr:RAMEßCD and 498 mL of distilled water. Aliquots were taken and analyzed as previously described.

dissolution in distilled water [2]: cannot be dissolved and was undetectable
SMILES: O=C1CCC(=O)N1CCCC(=C(c1ccc(O)cc1)c1ccc(O)cc1)[c-]1cccc1.[Fe+2].c1cc[cH-]c1 [SuccFerr, N-[4-ferrocenyl,5-5-bis (4-hydroxyphenyl)-pent-4-enyl]-succinimide]
IC50 ratio (highest/lowest) [1]: ≈ 3000 | IC50 ([1]; read-out: highest IC50 across the PDCLs): ~30 µM | IC50 ([1]; read-out: lowest IC50 across the PDCLs): 0.01 µM
